Where two headings read alike, the source gives them in different places.
Experiments:
[1] = tested on: differentiated P19 neurons; test: Differentiated P19 excitotoxicity assay (glutamate/glycine-induced death, Alamar Blue); type: cell-based, murine
Experimental: Alamar Blue fluorescence, an indicator of cell viability, was used to determine cell viability after an NMDA-induced cytotoxic insult. […] However, since raw fluorescence counts vary from experiment to experiment, FIGS. 2A, 2B, and 2C are expressed as a percent of control.
(§1) Glutamate toxicity dose response in the presence of a constant 1 mM glycine concentration was measured in the differentiated P19 neurons. The curve generated through the data points is the average of 6 separate dose response curves. Data points are represented as the percent of control cells ±standard error. % control=(([Glutamate]exp−[Glutamate]max)/(Controlvehicle−[Glutamate]max))×100.
Data points are the average ±standard error of three separate experiments.
These cells were used to measure the effects of various known kinase inhibitors (Compound Identification (ID) column in Table I) upon cytotoxicity-induced by NMDA. First, P19 cells were differentiated as described in Example 2. Then cells were exposed to 3 mM of glutamate in the presence of 1 mM glycine.
Cell viability was determined. Compounds that prevented excitotoxicity were determined by measuring the percentage of viable cells compared to differentiated P19 cells that were not presented with a toxic insult (Table I).
Cell viability was measured using two methods. The first method was a confocal, single-cell fluorescence imaging-based method using the live cell dye carboxy-fluorescein diacetate (CFDA). CFDA labels the cell bodies and processes of living cells. […] CFDA fluorescence was measured using a modified Attofluor Imager device (Atto Instruments, Rockville Pike, Md.). Cells were labeled with 1 uM CFDA for 15 min in media, then placed onto the stage of the Attofluor microscope. The dye was excited by light from a mercury lamp source passed through a 488 nm bandpass filter of 10 nm band width, passed through a CARV real-time confocal spinning disk module (Atto Instruments, Rockville, Md.), and then passed through a 40× oil immersion objective (Zeiss Fluar, NA=1.3). Emitted light was transmitted through a 495 nm dichroic mirror, collected to an Attofluor intensified CCD camera, and images were visualized using Attofluor RatioVision software (Atto Instruments, Rockville, Md.).
The second method for measuring cell viability was a plate reader method. Cells plated into black 96 well plates (Packard viewplates) are loaded with 5% Alamar Blue dye (Biosource International). Alamar Blue is a dye that takes advantage of mitochondrial reductases to convert non-fluorescent resazurin to fluorescent resorufin (excitation 535 nm, emission 580 nm). Baseline fluorescence counts were read at room temperature in a Wallac plate reader immediately after addition of Alamar blue. Fluorescence counts of cell viability were taken the same way after 1 hour incubation at 37° C. Fluorescence was expressed as a percent of control, untreated cells after subtraction of background fluorescence. Live/dead cells were confirmed visually with a light microscope. […]

P19 neurons [2] = settings: mouse, 1 mM
Experimental: as §1

P19 neurons [3] = test: A23187-induced toxicity in P19 neurons (Alamar blue); type: cell-based, murine; settings: Mus musculus, Neuron, 24 h
Experimental: Cells were then assayed for Alamar blue fluorescence. […] Data points are represented as percent of control cells ±standard error.

[4] = tested on: differentiated P19 neurons; test: Drug screening using differentiated P19 cell assay (neuroprotection against glutamate/glycine); type: cell-based, murine; settings: for IC50: dose response 0.005-3 μM, 3 mM glutamate + 1 mM glycine, >1 = no maximum within highest dose (3 μM); for % neuroprotection (cell survival relative to control): screened at 1 micromolar, percentage of control cells surviving after 24 hours
Experimental: Commercially available chemical libraries (BioFocus PLC, UK) were screened using the methods described herein. The stock concentration of the compounds was about 400 μM in DMSO. The concentration of compounds used in the primary screen was 1 μM. […] Columns 4-11 received compounds at the following final concentrations (μM): 3, 1.2, 0.48, 0.192, 0.077, 0.031, 0.012 and 0.005. Each row contained a different compound for confirmation. Only rows B-G received compounds, and rows A and H remained untreated. Data are expressed as % neuroprotection=((compound-glutamate average)/(U0126-glutamate average)×100).
Only the 2-pyridinamines are the subject of this invention, although limited data for 4-pyrimidinamines are presented as well. “% Inh” indicates the percentage of control cells surviving after 24 hours, and represents the neuroprotective effect of the compounds screened at 1 micromolar concentration. IC50 relate to data from dose response experiments. […] ND refers to compounds not tested in dose-response experiments. […]

Structure (SMILES)	IC50 [4] [nM]	% neuroprotection (cell survival relative to control) [4] [%]	other results
N[C@@H](CCC(=O)O)C(=O)O [Glutamate]			reduction in Alamar blue fluorescence ([1]; 3 mM glutamate and 1 mM glycine for 24 hours): 60%; EC50 ([1]; constant 1 mM glycine, 24 hours, average of 6 curves, read-out: Glutamate toxicity EC50): 8100 nM
NCC(=O)O [Glycine]			effect on basal P19 neuron viability (P19 neurons [2]): did not affect P19 neuron viability
CNc1ccc2oc(C[C@H]3O[C@@]4(CC[C@H]3C)O[C@H]([C@H](C)C(=O)c3ccc[nH]3)[C@H](C)C[C@H]4C)nc2c1C(=O)O [A23187]			EC50 (P19 neurons [3]; read-out: EC50 for A23187 toxicity, 24 hours, in the absence of U0126): 520 nM; EC50 (P19 neurons [3]; read-out: EC50 for A23187 toxicity, 24 hours, in the presence of 10 μM U0126): 833 nM
[Li] [Lithium]			Emax ([1]; Mus musculus, Neuron, 3 mM glutamate + 1 mM glycine, read-out: Maximal Efficacy for Neuroprotection): < 10%
COc1ccc(Nc2cccc(-c3ccc4ccccc4c3)n2)c(C)c1OC [Cmpd 136]		86	IC50 ([4]; Mus musculus, Neuron): > 1000 nM
COc1cc(Nc2cccc(-c3cc(C(F)(F)F)cc(C(F)(F)F)c3)n2)cc(OC)c1OC [Cmpd 137]	590	82	
COc1ccc(Nc2cccc(-c3ccc(CNC(=O)OC(C)(C)C)cc3)n2)cc1 [Cmpd 102]		103	IC50 ([4]; Mus musculus, Neuron): 940 nM
COc1ccc(Nc2ccc(-c3cccc(OC(F)(F)F)c3)cn2)cc1 [Cmpd 18]		74	
COc1cc(Nc2cccc(-c3ccccc3Oc3ccccc3)n2)cc(OC)c1OC [Cmpd 138, 2-pyridinamine, 6-(2-phenoxyphenyl)-N-(3,4,5-trimethoxyphenyl)-]		90	IC50 ([4]; Mus musculus, Neuron): 230 nM
COc1ccc(Nc2ccc(-c3ccc(N4CCOCC4)cc3)cn2)cc1 [Cmpd 83]		71	
COc1ccc(Nc2cccc(-c3ccc(Cl)cc3)n2)cc1 [Cmpd 103]		75	
CCOc1cccc(-c2ccc(Nc3cc(OC)c(OC)c(OC)c3)nc2)c1 [Cmpd 12, 2-pyridinamine, 5-(3-ethoxyphenyl)-N-(3,4,5-trimethoxyphenyl)-]		87	IC50 ([4]; Mus musculus, Neuron): 47 nM
COc1ccc(Nc2cccc(-c3ccccc3Oc3ccccc3)n2)cc1 [Cmpd 101]		78	
CCCCCOc1ccc(Nc2ccc(-c3ccc(N(C)C)cc3)cn2)cc1 [Cmpd 7, 2-pyridinamine, 5-[4-(dimethylamino)phenyl]-N-[4-(pentyloxy)phenyl]-]		88	IC50 ([4]; Mus musculus, Neuron): 240 nM
COc1ccc(Nc2ccc(-c3ccccc3)cn2)cc1 [Cmpd 82]		72	
FC(F)(F)Oc1ccc(-c2ccc(Nc3ccc(N4CCOCC4)cc3)nc2)cc1 [Cmpd 17]		74	
CCOc1cccc(-c2ccc(Nc3ccc4c(c3)OCCO4)nc2)c1 [Cmpd 73]		76	
CCn1c2ccccc2c2cc(Nc3cccc(-c4cccc(N(C)C)c4)n3)ccc21 [Cmpd 104, 9H-carbazol-3-amine, N-[6-[3-(dimethylamino)phenyl]-2-pyridinyl]-9-ethyl-]		89	IC50 ([4]; Mus musculus, Neuron): 90 nM
CN(C)c1cccc(Nc2ccc(-c3ccc(N4CCN(C(=O)OC(C)(C)C)CC4)cc3)cn2)c1 [Cmpd 38]		89	
COc1cc(Nc2cccc(-c3ccc4ccccc4c3)n2)cc(OC)c1OC [Cmpd 135, 2-pyridinamine, 6-(2-naphthyl)-N-(3,4,5-trimethoxyphenyl)-]		86	IC50 ([4]; Mus musculus, Neuron): 210 nM
COc1cc(Nc2cccc(/C=C/c3ccccc3)n2)cc(OC)c1OC [Cmpd 144, 2-pyridinamine, 6-[(E)-2-phenylethenyl]-N-(3,4,5-trimethoxyphenyl)-]		110	IC50 ([4]; Mus musculus, Neuron): 30 nM
COc1cc(Nc2ccc(-c3ccc(N4CCN(C(=O)OC(C)(C)C)CC4)cc3)cn2)cc(OC)c1OC [Cmpd 40]		77	
COc1cc(Nc2cccc(-c3ccc(F)c(Cl)c3)n2)cc(OC)c1OC [Cmpd 142]		94	
CCCCCOc1ccc(Nc2ccc(-c3ccccc3OC)cn2)cc1 [Cmpd 14, 2-pyridinamine, 5-(2-methoxyphenyl)-N-[4-(pentyloxy)phenyl]-]		90	IC50 ([4]; Mus musculus, Neuron): 220 nM
c1ccc2cc(-c3ccc(Nc4ccc(N5CCOCC5)cc4)nc3)ccc2c1 [Cmpd 25, 2-pyridinamine, N-[4-(4-morpholinyl)phenyl]-5-(2-naphthyl)-]		100	IC50 ([4]; Mus musculus, Neuron): 84 nM
COc1cc(Nc2cccc(-c3cccc(OC(F)(F)F)c3)n2)cc(OC)c1OC [Cmpd 118, 2-pyridinamine, 6-[3-(trifluoromethoxy)phenyl]-N-(3,4,5-trimethoxyphenyl)-]		91	IC50 ([4]; Mus musculus, Neuron): 50 nM
COc1cc(Nc2cccc(-c3ccc(N4CCOCC4)cc3)n2)cc(OC)c1OC [Cmpd 106]	660	84	
c1ccc(Oc2ccc(Nc3cccc(-c4ccc5c(c4)OCO5)n3)cc2)cc1 [Cmpd 140]		79	
c1ccc2sc(-c3ccc(Nc4ccc(N5CCOCC5)cc4)nc3)cc2c1 [Cmpd 22, 2-pyridinamine, 5-benzo[b]thien-2-yl-N-[4-(4-morpholinyl)phenyl]-]		98	IC50 ([4]; Mus musculus, Neuron): 90 nM
CCn1c2ccccc2c2cc(Nc3ccc(-c4ccc(N5CCOCC5)cc4)cn3)ccc21 [Cmpd 77]		82	

The next lines start with results.

IC50 [4] [nM]	Structure (SMILES)	% neuroprotection (cell survival relative to control) [4] [%]	other results
> 1000	Cc1ccc(-c2ccc(Nc3ccc4c(c3)OCCO4)nc2)cc1C [Cmpd 85]	86	
850	COc1ccc(Nc2cccc(-c3ccc(OC)c(OC)c3)n2)cc1 [Cmpd 130]	96	
1080	Oc1ccc(-c2ccc(Nc3ccc(N4CCOCC4)cc3)nc2)cc1 [Cmpd 1]	84	
1590	CCn1c2ccccc2c2cc(Nc3cccc(-c4cncc(OC)c4)n3)ccc21 [Cmpd 134]	92	
> 1000	Cc1ccc(-c2ccc(Nc3cccc(N(C)C)c3)nc2)cc1C [Cmpd 87]	84	
920	c1ccc2oc(-c3ccc(Nc4ccc(N5CCOCC5)cc4)nc3)cc2c1 [Cmpd 23]	96	
> 1000	c1cc(N2CCOCC2)ccc1Nc1ccc(-c2ccc3c(c2)OCO3)cn1 [Cmpd 30]	84	
470	c1ccc2cc(-c3ccc(Nc4ccc5c(c4)OCCO5)nc3)ccc2c1 [Cmpd 81]	107	
1760	COc1cc(-c2ccc(Nc3ccc(N4CCOCC4)cc3)nc2)cc(OC)c1OC [Cmpd 24]	94	
340	CCn1c2ccccc2c2cc(Nc3cccc(-c4ccc(OC)c(OC)c4)n3)ccc21 [Cmpd 129]	92	
> 1000	COc1ccc(Nc2ccc(-c3ccccc3OC)cn2)cc1 [Cmpd 35]	82	
750	Cc1ccc(-c2ccc(Nc3ccc(N4CCOCC4)cc3)nc2)cc1C [Cmpd 80]	94	
